Results as given in patent publication US9994552B2, “Compositions useful for treating disorders related to kit” (BLUEPRINT MEDICINES CORPORATION, priority 2013, dated 2018).
pIC50: −log10 of the molar value.

Columns and labels:
[1] = molecular target: D816V Kit (Homo sapiens (Human), UniProt P10721, D816V); experiment: Kit D816V assay at Km (Caliper electrophoretic mobility shift); format: biochemical; details: for IC50: D816V Kit 0.5 nM, 15 uM ATP (Km), 1 uM Srctide, 25 C, 90 minutes, read-out: INH-KITD816V ENZ-KM IC50 (nM) (Num); for times more potent against the D816V mutant than against the wild-type Kit: D816V Kit versus wild-type Kit, enzyme assays at Km
Description: (§1) In order to assess the activity of chemical compounds against the relevant kinase of interest, the Caliper LifeSciences electrophoretic mobility shift technology platform is used. Fluorescently labeled substrate peptide is incubated in the presence of kinase and ATP so that a […] proportion of the peptide is phosphorylated. At the end of the reaction, the mix of phosphorylated (product) and non-phosphorylated (substrate) peptides are passed through the microfluidic system of the Caliper EZ Reader 2, under an applied potential difference. The presence of the phosphate group on the product peptide provides a difference in mass and charge between those of the substrate peptide, resulting in a separation of the substrate and product pools in the sample. As the pools pass a LEDS within the instrument, these pools are detected and resolved as separate peaks. The ratio between these peaks therefore reflects the activity of the chemical matter at that concentration in that well, under those conditions.
(§2) The reaction was stopped by the addition of 70 ul of Stop buffer (100 mM HEPES pH 7.5, 0.015% Brij 35, 35 mM EDTA and 0.2% of Coating Reagent 3 (Caliper Lifesciences)). The plate was then read on a Caliper EZReader 2 (protocol settings: −1.9 psi, upstream voltage −700, downstream voltage −3000, post sample sip 35 s).

[2] = molecular target: wild type Kit (Homo sapiens (Human), UniProt P10721); experiment: Kit wild type assay at Km (Caliper electrophoretic mobility shift); format: biochemical; details: wild type Kit 2 nM, 400 uM ATP (Km), 1 uM Srctide, 25 C, 90 minutes; read-out: INH-KITWT ENZ-KM IC50 (nM) (Num)
Description: as §1, §2

[3] = molecular target: Kit D816V kinase activity (Kit autophosphorylation at tyrosine 719) (Homo sapiens (Human), UniProt P10721, D816V/V560G); experiment: HMC1.2 Autophosphorylation Assay (AlphaLISA phospho-Y719 c-Kit)
Description: 10,000 HMC1.2 cells were incubated in 22 ul culture media (phenol-red free IMDM, no serum) in each well of a 384-well plate and serum starved overnight in a tissue culture incubator (5% CO2, 37° C.). […] After 90 minutes, 6 ul of 5× AlphaLISA Lysis Buffer (Perkin Elmer) supplemented with a protease and phosphatase inhibitor cocktail (Cell Signaling Technologies) was added to each well and shaken at 450 rpm for 15 minutes at 4° C. […] 10 ul of 100 ug/ml streptavidin donor beads (Perkin Elmer) were added to each well, blocked from light with aluminum adhesive and shaken at 300 rpm at room temperature for 2 hours. Fluorescence signal was obtained on Envision (Perkin Elmer) by AlphaScreen 384 well HTS protocol.

[4] = system: HMC1.2 cells; experiment: HMC1.2 Proliferation Assay (CellTiter-Glo); details: 72 h, read-out: HMC1.2 Proliferation IC50
Description: 1000 HMC1.2 cells were incubated in 22 ul culture media (IMDM, 10% calf serum with Iron) in each well of a 384-well plate overnight in a tissue culture incubator (5% CO2, 37° C.). […] After 3 days incubation in tissue culture incubator, 25 ul CellTiter-Glo (Promega) solution was added to each well for ATP/cell viability measurement.
In addition, these compounds were assayed for their ability to inhibit the dependence of these cells on Kit kinase activity by disrupting their growth and proliferation.

Kit D816V kinase activity (Kit autophosphorylation at tyrosine 719), sequence (P10721 26-976 V560G/D816V): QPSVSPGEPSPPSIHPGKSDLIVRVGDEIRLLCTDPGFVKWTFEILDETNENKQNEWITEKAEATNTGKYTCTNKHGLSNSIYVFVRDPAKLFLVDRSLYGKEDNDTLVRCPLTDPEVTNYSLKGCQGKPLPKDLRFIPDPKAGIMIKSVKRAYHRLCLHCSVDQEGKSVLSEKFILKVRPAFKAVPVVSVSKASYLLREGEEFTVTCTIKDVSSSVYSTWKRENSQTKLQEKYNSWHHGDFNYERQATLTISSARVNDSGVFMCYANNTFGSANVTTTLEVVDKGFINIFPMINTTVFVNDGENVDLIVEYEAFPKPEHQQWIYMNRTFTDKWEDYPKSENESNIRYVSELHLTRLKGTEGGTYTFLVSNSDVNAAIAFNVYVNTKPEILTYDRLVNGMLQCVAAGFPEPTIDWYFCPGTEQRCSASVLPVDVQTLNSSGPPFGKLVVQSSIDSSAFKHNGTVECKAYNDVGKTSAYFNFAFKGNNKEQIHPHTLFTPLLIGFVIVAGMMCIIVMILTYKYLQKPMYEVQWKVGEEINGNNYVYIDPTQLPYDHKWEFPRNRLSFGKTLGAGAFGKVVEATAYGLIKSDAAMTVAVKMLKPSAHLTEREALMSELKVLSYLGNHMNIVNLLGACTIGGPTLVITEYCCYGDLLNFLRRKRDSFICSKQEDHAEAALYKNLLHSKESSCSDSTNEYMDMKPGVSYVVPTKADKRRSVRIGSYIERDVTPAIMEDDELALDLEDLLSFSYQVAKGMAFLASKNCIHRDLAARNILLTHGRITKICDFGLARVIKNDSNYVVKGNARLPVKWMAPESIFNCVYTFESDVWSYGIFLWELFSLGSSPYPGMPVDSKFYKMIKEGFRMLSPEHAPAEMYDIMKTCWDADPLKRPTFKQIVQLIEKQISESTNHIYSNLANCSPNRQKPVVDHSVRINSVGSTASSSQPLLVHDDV
wild type Kit, sequence (P10721 26-976): as the sequence (P10721 26-976 V560G/D816V) above, with G535V, V791D counted along it
D816V Kit, sequence (P10721 26-976 D816V): as the sequence (P10721 26-976 V560G/D816V) above, with G535V counted along it

IC50 [1] | times more potent against the D816V mutant than against the wild-type Kit [1] | IC50 [2] | pIC50 [3] | SMILES | pIC50 [4]
10 to 100 nM |  | 100 to 1000 nM |  | COc1ccc2ncnc(N3CCN(c4ncc(Cc5ccccc5)cn4)[C@H](C)C3)c2c1 [Compound 7] | 5.00 to 6.00
1.01 to 10 nM |  | 11 to 100 nM |  | COc1cc2ncnc(N3CCN(c4ncc(Cc5ccc(C)cc5)cn4)C(=O)C3)c2cc1OC [Compound 22] | 5.00 to 6.00
1.01 to 10 nM | less than 5 times | 11 to 100 nM | 6.00 to 7.00 | COc1cc2ncnc(N3CCN(c4ncc(Cc5ccccc5)cn4)C(C)C3)c2cc1OC (stereo not drawn) [Compound 23] | 5.00 to 6.00
< 1 nM |  | < 10 nM | 6.00 to 7.00 | COc1cc2ncnc(N3CCN(c4ncc(Cc5ccccc5)c(O)n4)CC3)c2cc1OC [Compound 35] | 6.00 to 7.00
1.01 to 10 nM |  | 100 to 1000 nM |  | COc1cc2ncnc(N3CCN(c4ncc(Nc5ccc(F)cc5)cn4)CC3)c2cc1OC [Compound 42] | 5.00 to 6.00
1.01 to 10 nM |  | 11 to 100 nM | 7.00 to 8.00 | COc1cc2ncnc(N3CCN(c4ncc(Cc5ccccc5)cn4)CC3)c2cc1OCC1CNC1 [Compound 79] | 5.00 to 6.00
1.01 to 10 nM |  | 11 to 100 nM | 6.00 to 7.00 | COc1cc2ncnc(N3CCN(c4ncc(Cc5ccccc5)cn4)CC3)c2cc1OCC(O)CO (stereo not drawn) [Compound 84] | 5.00 to 6.00
1.01 to 10 nM |  | 11 to 100 nM | 6.00 to 7.00 | COc1cc2c(N3CCN(c4ncc(Cc5ccccc5)cn4)CC3)ncnc2cc1OCC(O)CO (stereo not drawn) [Compound 85] | 5.00 to 6.00
10 to 100 nM |  | 100 to 1000 nM |  | COc1cc2ncnc(N3CCN(c4ncc(Cc5ccc(C(F)(F)F)cc5)cn4)CC3)c2cc1OC [Compound 88] | < 5.00
< 1 nM |  | 11 to 100 nM | 7.00 to 8.00 | COc1cc2ncnc(N3CCN(c4ncc(Cc5ccccc5)cn4)CC3)c2cc1OCC1CCNC(=O)C1 (stereo not drawn) [Compound 109] | 5.00 to 6.00
< 1 nM |  | 11 to 100 nM | 6.00 to 7.00 | COc1cc2c(N3CCN(c4ncc(Cc5ccccc5)cn4)CC3)ncnc2cc1OCCN1CCCC1=O [Compound 111] | 5.00 to 6.00
< 1 nM |  | < 10 nM |  | COc1cc2ncnc(N3CCN(c4ncc(Cc5ccccc5)c(=O)[nH]4)CC3)c2cc1OC[C@H]1CNCCO1 [Compound 120] | 
< 1 nM |  | < 10 nM |  | COc1cc2ncnc(N3CCN(c4ncc(Cc5ccccc5)c(N)n4)CC3)c2cc1OC[C@@H]1CCCN(C)C1 [Compound 124] | 
1.01 to 10 nM |  | 11 to 100 nM |  | COc1cc2ncnc(N3CCN(c4ncc(Cc5ccccc5)c(=O)[nH]4)CC3)c2cc1OC[C@@H]1CCCN(C)C1 [Compound 128] | 
1.01 to 10 nM | less than 5 times | 11 to 100 nM |  | COc1cc2ncnc(N3CCN(c4ncc(Cc5ccccc5)cn4)CC3)c2cc1OC1CCN(CCO)CC1 [Compound 129] | 
1.01 to 10 nM |  | < 10 nM |  | COc1cc2ncnc(N3CCN(c4ncc(Cc5ccccc5)c(=O)[nH]4)CC3)c2cc1OCC1CN(C)CCO1 (stereo not drawn) [Compound 130] | 
< 1 nM |  | < 10 nM |  | COc1cc2ncnc(N3CCN(c4ncc(Cc5ccccc5)cn4)CC3)c2cc1OCC1(F)CCN(C)CC1 [Compound 131] | 
1.01 to 10 nM |  | 11 to 100 nM |  | COc1cc2ncnc(N3CCN(c4ncc(Nc5ccc(F)cc5)cn4)CC3)c2cc1OCC1CCN(C)CC1 [Compound 132] | 
1.01 to 10 nM |  | 11 to 100 nM |  | COc1cc2ncnc(N3CCN(c4ncc(Oc5ccc(F)cc5)cn4)CC3)c2cc1OCC1CCN(C)CC1 [Compound 133] | 
< 1 nM |  | < 10 nM |  | CCOc1cc2ncnc(N3CCN(c4ncc(Cc5ccccc5)c(N)n4)CC3)c2cc1OCC1CCN(C)CC1 [Compound 135] | 
< 1 nM | less than 5 times | < 10 nM |  | CCOc1cc2ncnc(N3CCN(c4ncc(Cc5ccccc5)c(=O)[nH]4)CC3)c2cc1OCC1CCN(C)CC1 [Compound 138] | 
1.01 to 10 nM |  | 11 to 100 nM |  | COc1cc2ncnc(N3CCN(c4ncc(Sc5ccc(F)cc5)cn4)CC3)c2cc1OCC1CCN(C)CC1 [Compound 140] | 

The remaining lines, values behind:

SMILES | IC50 [1] | times more potent against the D816V mutant than against the wild-type Kit [1] | IC50 [2] | pIC50 [3] | pIC50 [4]
c1ccc(Cc2cnc(N3CCN(c4ncnc5[nH]cnc45)CC3)nc2)cc1 [Compound 1] | 10 to 100 nM | at least 100 times | > 1000 nM | < 5.00 | 5.00 to 6.00
COc1ccc2ncnc(N3CCN(c4ncc(Cc5ccccc5)cn4)CC3)c2c1 [Compound 5] | 10 to 100 nM |  | 100 to 1000 nM |  | 5.00 to 6.00
COc1cc2ncnc(N3CCN(c4ncc(Nc5ccccc5)cn4)CC3)c2cc1OC [Compound 13, 2-(4-(6,7-dimethoxyquinazolin-4-yl)piperazin-1-yl)-N-phenylpyrimidin-5-amine] | 1.01 to 10 nM |  | 100 to 1000 nM | 6.00 to 7.00 | 5.00 to 6.00
COc1cc2ncnc(N3CCN(c4ncc(Nc5ccccc5)cn4)[C@H](C)C3)c2cc1OC [Compound 30] | 1.01 to 10 nM |  | 100 to 1000 nM |  | 5.00 to 6.00
COc1cc2ncnc(N3CCN(c4ncc(COc5ccccc5)cn4)CC3)c2cc1OC [Compound 36] | 1.01 to 10 nM |  | 11 to 100 nM | 6.00 to 7.00 | 5.00 to 6.00
COc1cc2ncnc(N3CCN(c4ncc(Cc5ccccc5)cn4)CC3)c2cc1OCC1CCNCC1 [Compound 98] | < 1 nM |  | 11 to 100 nM | 7.00 to 8.00 | 5.00 to 6.00
COc1cc2ncnc(N3CCN(c4ncc(Cc5ccccc5)cn4)CC3)c2cc1OC1CCN(C)CC1 [Compound 99] | 1.01 to 10 nM |  | 11 to 100 nM | 6.00 to 7.00 | 5.00 to 6.00
COc1cc2ncnc(N3CCN(c4ncc(Cc5ccccc5)cn4)CC3)c2cc1OCC1CNCCO1 (stereo not drawn) [Compound 105] | < 1 nM |  | 11 to 100 nM | 7.00 to 8.00 | 6.00 to 7.00
COc1cc2c(N3CCN(c4ncc(Br)cn4)CC3)ncnc2cc1OCCCN1CCCC1 [Compound 107] | 10 to 100 nM |  | 100 to 1000 nM |  | 5.00 to 6.00
COc1cc2ncnc(N3CCN(c4ncc(Cc5ccccc5)cn4)CC3)c2cc1OC1CCN(CCO)C1 (stereo not drawn) [Compound 118] | 1.01 to 10 nM |  | 11 to 100 nM |  | 
COc1cc2ncnc(N3CC4CCC(C3)N4c3ncc(Cc4ccccc4)cn3)c2cc1OCC1CNCCO1 (stereo not drawn) [Compound 121] | < 1 nM |  | 11 to 100 nM |  | 
CCOc1cc2ncnc(N3CCN(c4ncc(Cc5ccccc5)cn4)CC3)c2cc1OCC1CCN(C)CC1 [Compound 122] | < 1 nM |  | < 10 nM |  | 
COc1cc2ncnc(N3CCN(c4ncc(Cc5ccccc5)cn4)CC3)c2cc1OCCN1CCN(C)CC1 [Compound 126] | 1.01 to 10 nM |  | 11 to 100 nM |  | 
COc1cc2ncnc(N3CCN(c4ncc(Cc5ccccc5)c(=O)[nH]4)CC3)c2cc1OCC1CCN(C)CC1 [Compound 127] | < 1 nM |  | < 10 nM |  | 
COc1cc2ncnc(N3CCN(c4ncc(Cc5ccccc5)cn4)CC3)c2cc1OCC1CCN(CCO)CC1 [Compound 139] | 1.01 to 10 nM |  | 11 to 100 nM |  | 
